As usually defined, the MIC90 is the lowest concentration that inhibits either 90% of growth or 90% of the strains tested, depending on the study. Low readings indicate greater potency, high ones weaker potency. A word on the Km: it is the concentration of substrate that gives half-maximal velocity. A word on the kinact: it is the maximal first-order rate at which the target is inactivated. For orientation: Ki means a dissociation constant, usually derived from enzyme kinetics or from competition with a known ligand. As usually defined, the MIC is the lowest concentration found to suppress growth. What is called kcat is the maximal rate divided by the concentration of active sites. The term kcat/Km denotes the second-order rate constant that governs catalysis at low substrate concentration.

Substitutions are numbered along the chain they refer to. Converted amounts (≈) assume the structure as drawn. Where two headings read alike, the source gives them in different places. Marks after values point to notes of the source that are not given here.

One data set relates to E. coli ATCC 29522. As to the kind of experiment: Growth curves. The data set is classed as cell-based.
Another data set deals with E. coli ATCC 25922. As to the kind of experiment: Broth microdilution MIC in chemically defined minimal medium. It is filed as cell-based. Conditions: for phenotype induced by treatment (L-Gln dependence of growth): E. coli in minimal medium with or without L-Gln. In general terms: Broth dilution looks for growth in wells or tubes with falling amounts of substance.
Another data set deals with human GS. Conditions: cited from earlier work.
For data set [1], the target named is T1, E. coli GS (Escherichia coli, UniProt P0A9C5). Conditions: cited from earlier work.
The target of data set [2] is recombinant N-His6-tagged GS from E. coli (Escherichia coli, UniProt P0A9C5). As to the kind of experiment: biochemical. Conditions: for kinact: pH 7.4. It is filed as biochemical.
The test system of data set [3] is unadenylylated E. coli GS. Conditions: read-out: KI (literature); cited from earlier work.
The target of data set [4] is recombinant N-His6-tagged GS from Homo sapiens (Homo sapiens, UniProt P15104). As to the kind of experiment: biochemical. It is filed as biochemical. Conditions: for kinact: pH 7.4.
Sequence of recombinant N-His6-tagged GS from Homo sapiens (P15104 whole entry): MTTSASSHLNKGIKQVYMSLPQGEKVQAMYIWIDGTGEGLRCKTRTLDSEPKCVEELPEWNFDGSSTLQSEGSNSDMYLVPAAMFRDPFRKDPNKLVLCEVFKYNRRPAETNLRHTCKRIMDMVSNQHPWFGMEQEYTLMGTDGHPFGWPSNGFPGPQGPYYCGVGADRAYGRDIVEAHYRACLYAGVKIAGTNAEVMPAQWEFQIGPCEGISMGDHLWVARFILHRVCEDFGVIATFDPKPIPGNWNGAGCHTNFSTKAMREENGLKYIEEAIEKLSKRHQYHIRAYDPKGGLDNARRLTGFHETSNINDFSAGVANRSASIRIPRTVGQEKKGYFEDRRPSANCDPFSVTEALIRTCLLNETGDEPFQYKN
Data set [5] has as its target recombinant N-His6-tagged GS from S. aureus (Staphylococcus aureus, UniProt P0A040). The data set is described as follows: biochemical. It is filed as biochemical. Conditions: for kinact: pH 7.4.
For data set [6], the target named is T1, E. coli GS. Conditions: cited from earlier work. The source holds these as a separate data set.
The subject of data set [7] is GS isolated from Leishmania donovani. Conditions: read-out: apparent Km for L-Glu (literature); cited from earlier work.
The target in data set [8] is T1, E. coli GS. It is filed as biochemical. Conditions: apparent, saturating ATP (10 mM) and NH3 (10 mM).
Another data set has as its target recombinant S. aureus GS (Staphylococcus aureus, UniProt P0A040). It is filed as biochemical. Conditions: apparent, saturating ATP (10 mM) and NH3 (10 mM).
The target of a further data set is recombinant human GS (Homo sapiens, UniProt P15104). The data set is classed as biochemical. Conditions: apparent, saturating ATP (10 mM) and NH3 (10 mM).
Sequence of recombinant human GS (P15104 whole entry): as above
The subject of a further data set is M. tuberculosis. Conditions: in vivo, cited from earlier work.
In the next data set the test system is GS. Conditions: relative to Glufos; cited from earlier work.
The conditions of data set [9]: 23 °C, pH 7.2 phosphate buffer; isomerization to TδL-Thr; cited from earlier work.
Substrate in data set [10]: N[C@@H](CCC(=O)O)C(=O)O
As to the kind of experiment: purified protein, by the assay type. The data set is classed as biochemical. Conditions: pH 7.4.

Substrate in data set [11]: Nc1ncnc2c1ncn2[C@@H]1O[C@H](COP(=O)(O)OP(=O)(O)OP(=O)(O)O)[C@@H](O)[C@H]1O
As to the kind of experiment: purified protein, by the assay type. Conditions: other: apparent; saturating L-Glu (50 mM) and NH3 (10 mM); pH 7.4; 37.0 °C.

[12] abbreviates: end point, minimal medium, no amino acid supplement, 37 °C, 18–24 h.
Where [13] appears, read: minimal medium supplemented with 5 mM L-Glu.
The mark [14] stands for this setting: read-out: apparent Km for ATP (literature).
Setting [15] is: apparent, Kitz–Wilson fit, 37 °C.

Sequence of recombinant N-His6-tagged GS from S. aureus (P0A040 whole entry): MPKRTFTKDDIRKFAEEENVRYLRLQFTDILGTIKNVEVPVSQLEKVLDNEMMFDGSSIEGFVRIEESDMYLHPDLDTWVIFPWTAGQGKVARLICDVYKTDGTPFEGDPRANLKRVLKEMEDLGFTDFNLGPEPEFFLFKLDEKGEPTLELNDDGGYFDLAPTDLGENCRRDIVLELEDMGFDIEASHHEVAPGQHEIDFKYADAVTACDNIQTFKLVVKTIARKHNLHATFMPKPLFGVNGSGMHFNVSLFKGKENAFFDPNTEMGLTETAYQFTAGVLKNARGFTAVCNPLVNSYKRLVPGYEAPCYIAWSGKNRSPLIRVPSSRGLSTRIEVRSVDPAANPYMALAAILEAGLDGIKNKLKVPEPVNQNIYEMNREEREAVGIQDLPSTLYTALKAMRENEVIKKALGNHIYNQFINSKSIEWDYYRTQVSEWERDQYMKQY
Sequence of recombinant S. aureus GS (P0A040 whole entry): as above

Take `C[C@H](N)C(=O)N[C@@H](C)C(=O)NC(CCP(C)(=O)O)C(=O)O` (stereo partly drawn) [AAG, L-Ala-L-Ala-Glufos]: the “time for which growth was fully suppressed” value with E. coli ATCC 29522 (2 μM) is over 66 h. For the same molecule, in the data set on E. coli ATCC 25922, the “phenotype induced by treatment (L-Gln dependence of growth)” value (from here on “phenotype induced by treatment”) is “glutamine auxotrophy”. Moreover, the MIC90 against E. coli ATCC 25922 (setting [12]) stood at 0.0005 mM (≈ 0.162 µg/mL); in the data set on E. coli ATCC 25922 (setting [13]), 0.001 mM (≈ 0.323 µg/mL).

On to `Nc1ncnc2c1ncn2[C@@H]1O[C@H](COP(=O)(O)OP(=O)(O)OP(=O)(O)O)[C@@H](O)[C@H]1O` [ATP, adenosine triphosphate], for which the Km in the data set with human GS (setting [14]) was 1.8 to 2.8 mM; at E. coli GS [1] (setting [14]), 0.1 to 0.7 mM.

For `CP(=O)(O)CCC(N)C(=O)O` (centres unmarked) [Glufos, glufosinate], the kinact/KI in [2] is 11700 M⁻¹ s⁻¹; in data set [4], 100 M⁻¹ s⁻¹; in data set [5], 500 M⁻¹ s⁻¹. Moreover, in data set [2] (E. coli GS versus human GS), the “difference in inhibitor efficiency (kinact/KI) for E. coli and human GS” value (“difference in inhibitor efficiency” for short) stood at 120 fold. In addition, the kinact was 0.7 min⁻¹ in data set [2], 0.9 min⁻¹ in data set [4] and 0.00667 s⁻¹ in [5]. In addition, the Ki in data set [3] is 1 µM.

Turning to `C[P@](=O)(CC[C@H](N)C(=O)O)OP(=O)(O)O` [Glufos-Pi, phospho-glufosinate], the “number of GS active sites occupied (of 12)” value on E. coli GS [6] is recorded as 11.

For `N[C@@H](CCC(=O)O)C(=O)O` [L-Glu], the Km in [7] was 26.3 ± 0.4 mM; with human GS (read-out: L-Glu Km (literature), recombinant human enzyme expressed in E. coli, colorimetric assay) it was 3.5 ± 0.7 mM; on E. coli GS [8] (read-out: Km (L-Glu)), 7.2 ± 0.8 mM; on E. coli GS [1] (read-out: apparent Km for L-Glu (literature)), 0.8 to 6.6 mM; on recombinant S. aureus GS (read-out: Km (L-Glu)), 52 ± 7 mM; at recombinant human GS (read-out: Km (L-Glu)) it was 37 ± 5 mM. Moreover, the figures for the “kcat (L-Glu)” value on E. coli GS [8], at recombinant S. aureus GS and at recombinant human GS were 131.7 ± 5 s⁻¹, 23.33 ± 1.67 s⁻¹ and 85 ± 5 s⁻¹, respectively.

As to `CS(=N)(=O)CC[C@H](N)C(=O)O` (some centres unmarked) [MetSox, Methionine sulfoximine], the “difference in inhibitor efficiency” value in data set [2] worked out at 250 fold. Further, the kinact/KI in data set [2] came out at 100 ± 40 min^−1μM^−1 ×10^3; in data set [4] (apparent inhibitor efficiency) it was 0.4 ± 0.3 min^−1μM^−1 ×10^3; in data set [5] (apparent inhibitor efficiency), 28 ± 9 min^−1μM^−1 ×10^3. For the same molecule, the kinact in data set [2] amounted to 0.4 ± 0.1 min⁻¹; in [4] (setting [15]), 0.4 ± 0.2 min⁻¹. Also, in [3], the Ki was 2 µM. The tolerability result in the data set on M. tuberculosis (guinea pig) is listed as “well tolerated”. Also, in the data set with M. tuberculosis, the “efficacy in guinea pig lung infection model” value was “effective and synergistic with isoniazid”.

As for `CS(=O)(CCC(N)C(=O)O)=NP(=O)(O)O` (centres unmarked) [MetSox-Pi, phospho-methionine sulfoximine], the active site occupancy at E. coli GS [6] is given as ~ 80%.

Take `N[C@@H](CC[C@]1(O)CNC1=O)C(=O)O` [TβL, Tabtoxinine-β-lactam]: the “kinact/KI (inhibitor efficiency)” value in [2] came to 180 ± 70 min^−1μM^−1; in data set [4], 2 ± 1 min^−1μM^−1; in data set [5], 8 ± 3 min^−1μM^−1. Further, the “difference in inhibitor efficiency” value in data set [2] (E. coli GS versus human GS) is reported as 90 fold. Moreover, the kinact/KI in data set [2] (apparent inhibitor efficiency) was found to be 180 ± 70 min^−1μM^−1 ×10^3; in data set [4] (apparent inhibitor efficiency), 2 ± 1 min^−1μM^−1 ×10^3; in data set [5] (apparent inhibitor efficiency) it was 8 ± 3 min^−1μM^−1 ×10^3. Further, the kinact in data set [2] (setting [15]) came to 0.3 ± 0.1 min⁻¹; in [4] (setting [15]) it was 0.3 ± 0.1 min⁻¹; in [5] (setting [15]), 0.0067 ± 0.0017 s⁻¹. Also, the “recovery of GS activity after dialysis of inhibition complex” value in [2] (several days of dialysis at 4 °C and 37 °C) is listed as “could not be recovered”.

Turning to `C[C@H](NC(=O)[C@H](C)NC(=O)[C@@H](N)CCP(C)(=O)[O-])C(=O)O.[Na+]` [bialaphos sodium salt, Glufos-L-Ala-L-Ala tripeptide, reference compound], in the data set with E. coli ATCC 25922, the “phenotype induced by treatment” value is “confirmed”.

As to `NC[C@H]1O[C@H](O[C@H]2[C@H](O)[C@@H](O[C@H]3O[C@H](CO)[C@@H](O)[C@H](N)[C@H]3O)[C@H](N)C[C@@H]2N)[C@H](O)[C@@H](O)[C@@H]1O` [kanamycin, reference compound], in the data set with E. coli ATCC 25922 (control antibiotic on every plate, minimal medium), the MIC was 0.008 mM (≈ 3.88 µg/mL).

`CP(=O)(O)C(O)CC(N)C(=O)O` (centres unmarked) [γ-hydroxylated variant of Glufos]: in the data set on GS, the “increase of the rate of GS activation” value was 50%.

As to tabtoxin [TβL-Thr], the “growth curve with L-Gln supplementation” value with E. coli ATCC 29522 (2 μM, L-Gln supplementation 2.5 mM) is reported as “matched the control”. Also, the “growth with L-Gln supplementation” value in the data set with E. coli ATCC 29522 (2 μM, medium supplemented with 0.1 mM L-Gln) is on record as “recovered to near control levels”. Further, the “time after which growth started to recover” value in the data set on E. coli ATCC 29522 (2 μM, minimal medium) came out at 26 h. In the data set with E. coli ATCC 29522 (100 μM), the “time for which growth was suppressed” value is on record as over 50 h. In [9], the isomerization half-life is listed as 37 h. The “phenotype induced by treatment” value in the data set with E. coli ATCC 25922 is reported as “glutamine auxotrophy”. Also, the MIC90 was found to be 0.0005 mM against E. coli ATCC 25922 (setting [12]) and 0.001 mM in the data set on E. coli ATCC 25922 (setting [13]).

B1: S. aureus GS (SA) (Staphylococcus aureus subsp. aureus N315) (protein)
chain: MPKRTFTKEDIRKFAEEENVRYLRLQFTDILGTIKNVEVPVSQLEKVLDNEMMFDGSSIEGFVRIEESDMYLHPDLDTWVIFPWTAGQGKVARLICDVYKTDGTPFEGDPRANLKRVLKEMEDLGFTDFNLGPEPEFFLFKLDEKGEPTLELNDDGGYFDLAPTDLGENCRRDIVLELEDMGFDIEASHHEVAPGQHEIDFKYADAVTACDNIQTFKLVVKTIARKHNLHATFMPKPLFGVNGSGMHFNVSLFKGKENAFFDPNTEMGLTETAYQFTAGVLKNARGFTAVCNPLVNSYKRLVPGYEAPCYIAWSGKNRSPLIRVPSSRGLSTRIEVRSVDPAANPYMALAAILEAGLDGIKNKLKVPEPVNQNIYEMNREEREAVGIQDLPSTLYTALKAMRENEVIKKALGNHIYNQFINSKSIEWDYYRTQVSEWERDQYMKQY
Turning to B1, in [10], the Km is reported as 52 ± 7 mM, the kcat was 23.3 ± 1.67 s⁻¹ and the kcat/Km stood at 450 ± 66.7 M⁻¹ s⁻¹.

B2: recombinant S. aureus GS (Staphylococcus aureus) (protein)
chain: B1 chain with E9D
As for B2, in data set [11], the Km came to 1.8 ± 0.1 mM, the kcat stood at 12 s⁻¹ and the kcat/Km came to 6670 M⁻¹ s⁻¹.

B3: E. coli GS (EC) (Escherichia coli K-12) (protein)
chain: SAEHVLTMLNEHEVKFVDLRFTDTKGKEQHVTIPAHQVNAEFFEEGKMFDGSSIGGWKGINESDMVLMPDASTAVIDPFFADSTLIIRCDILEPGTLQGYDRDPRSIAKRAEDYLRSTGIADTVLFGPEPEFFLFDDIRFGSSISGSHVAIDDIEGAWNSSTQYEGGNKGHRPAVKGGYFPVPPVDSAQDIRSEMCLVMEQMGLVVEAHHHEVATAGQNEVATRFNTMTKKADEIQIYKYVVHNVAHRFGKTATFMPKPMFGDNGSGMHCHMSLSKNGVNLFAGDKYAGLSEQALYYIGGVIKHAKAINALANPTTNSYKRLVPGYEAPVMLAYSARNRSASIRIPVVSSPKARRIEVRFPDPAANPYLCFAALLMAGLDGIKNKIHPGEAMDKNLYDLPPEEAKEIPQVAGSLEEALNELDLDREFLKAGGVFTDEAIDAYIALRREEDDRVRMTPHPVEFELYYSV
For the molecule B3, in [10], the Km is on record as 7.2 ± 0.8 mM, the kcat came to 132 ± 5 s⁻¹ and the kcat/Km came to 18300 ± 1670 M⁻¹ s⁻¹.

B4: recombinant E. coli GS (Escherichia coli K-12) (protein)
chain: MSAEHVLTMLNEHEVKFVDLRFTDTKGKEQHVTIPAHQVNAEFFEEGKMFDGSSIGGWKGINESDMVLMPDASTAVIDPFFADSTLIIRCDILEPGTLQGYDRDPRSIAKRAEDYLRSTGIADTVLFGPEPEFFLFDDIRFGSSISGSHVAIDDIEGAWNSSTQYEGGNKGHRPAVKGGYFPVPPVDSAQDIRSEMCLVMEQMGLVVEAHHHEVATAGQNEVATRFNTMTKKADEIQIYKYVVHNVAHRFGKTATFMPKPMFGDNGSGMHCHMSLSKNGVNLFAGDKYAGLSEQALYYIGGVIKHAKAINALANPTTNSYKRLVPGYEAPVMLAYSARNRSASIRIPVVSSPKARRIEVRFPDPAANPYLCFAALLMAGLDGIKNKIHPGEAMDKNLYDLPPEEAKEIPQVAGSLEEALNELDLDREFLKAGGVFTDEAIDAYIALRREEDDRVRMTPHPVEFELYYSV
As for B4, in data set [11], the Km is reported as 0.7 ± 0.1 ^a mM, the kcat is 122 s⁻¹ and the kcat/Km was 173000 M⁻¹ s⁻¹.

Source of the values: paper PMC5934995 (Biochemistry, 2017).
